Values joined by “and” are separate entries in the source; they are usually repeats but may differ in a detail not shown here. Equal entries are not always repeated.
Columns and labels:
Test in all cases: MIC, NCCLS broth microdilution
Assay type in all cases: cell-based
[1] = system: E. faecium A6349 Line-R
Experimental: (§1) The efficacy of ramoplanin was tested against recently isolated VRE that are resistant to linezolid and quinupristin/dalfopristin. The culture media containing ramoplanin was supplemented with 0.02% bovine serum albumin (BSA) to prevent ramoplanin binding to the plastic. MIC values were determined in both cation-adjusted Mueller-Hinton broth (CAMHB) and trypticase soy broth (TSB) by the National Committee for Clinical Laboratory Standards (NCCLS) broth microdilution method. Macromolecular biosynthesis experiments were done by following the incorporation of carbon-14-labeled N-acetylglucosamine, acetic acid, amino acids, uridine, and thymidine into peptidoglycan, fatty acid, protein, RNA and DNA, respectively.

[2] = system: E. faecium A6350 Line-R
Experimental: as §1

[3] = system: S. aureus ATCC19636 MSSA
Experimental: as §1

[4] = system: E. faecium A6345 Line-R; settings: for MIC: E. faecium A6345 Line-R
Experimental: as §1

[5] = system: E. faecium A-5960 Line-R; settings: Table 6, 2nd
Experimental: as §1

[6] = system: E. faecalis ATCC29212; settings: E. faecalis ATCC29212
Experimental: as §1

[7] = system: E. faecium A6343 Line-R
Experimental: as §1

[8] = system: S. aureus ATCC27660 MSSA
Experimental: as §1

[9] = system: E. faecium 1836; settings: E. faecium 1836
Experimental: as §1

[10] = system: S. epidermidis ATCC14990; settings: S. epidermidis ATCC14990
Experimental: as §1

[11] = system: S. epidermidis ATCC12228; settings: S. epidermidis ATCC12228
Experimental: as §1

[12] = system: E. faecium A5959 Line-R; settings: Table 6, 2nd
Experimental: as §1

[13] = system: E. faecium UA392; settings: E. faecium UA392
Experimental: as §1

[14] = system: S. aureus ATCC700699 MRSA/VISA; settings: S. aureus ATCC700699 MRSA/VISA
Experimental: as §1

[15] = system: S. aureus ATCC12600 MRSA
Experimental: as §1

[16] = system: S. aureus ATCC27659 MSSA
Experimental: as §1

[17] = system: E. faecalis ATCC51299; settings: E. faecalis ATCC51299
Experimental: as §1

[18] = system: E. faecium ATCC700221; settings: E. faecium ATCC700221
Experimental: as §1

[19] = system: E. faecium A2735 Syn-R
Experimental: as §1

[20] = system: E. gallinarum UA604
Experimental: as §1

[21] = system: S. aureus ATCC43300 MRSA
Experimental: as §1

[22] = system: E. faecalis A7789 Line-R; settings: Table 6, 1st
Experimental: as §1

[23] = system: E. faecium A4192 Syn-R
Experimental: as §1

## Ramoplanin
[1]; Table 6, 1st
  MIC: 0.125 µg/mL
[1]; Table 6, 2nd
  MIC: 0.25 µg/mL
[2]; CAMHB
  MIC: 0.25, 0.25 μg/ml
[2]; TSB
  MIC: 0.5, 0.5 μg/ml
[2]; Table 6, 1st
  MIC: 0.25 µg/mL
[2]; Table 6, 2nd
  MIC: 0.25 µg/mL
[3]; CAMHB
  MIC: 0.5, 0.5 μg/ml
[3]; TSB
  MIC: 0.25, 0.25 μg/ml
[3]; Table 6, 1st
  MIC: 1 µg/mL
[3]; Table 6, 2nd
  MIC: 1 µg/mL
[4]; E. faecium A6345 Line-R. as printed, second row of Table 3
  reference MIC for strains used for killing curve: 0.25 µg/mL
[4]; E. faecium A6345 Line-R., first row of Table 3
  reference MIC for strains used for killing curve: 0.25 µg/mL
[4]; CAMHB
  MIC: 0.125, 0.125 μg/ml
[4]; TSB
  MIC: 0.25, 0.25 μg/ml
[4]; Table 6, 1st
  MIC: 0.125 µg/mL
[4]; Table 6, 2nd
  MIC: 0.25 µg/mL
[5]
  MIC: 0.25 µg/mL
[6]; CAMHB
  MIC: 0.5, 0.5 μg/ml
[6]; TSB
  MIC: 0.5, 0.5 μg/ml
[6]; Table 6, 1st
  MIC: 0.25 µg/mL
[6]; Table 6, 2nd
  MIC: 0.5 µg/mL and 0.25 µg/mL
[7]; CAMHB
  MIC: 0.25, 0.25 μg/ml
[7]; TSB
  MIC: 0.25, 0.25 μg/ml
[7]; Table 6, 1st
  MIC: 0.125 µg/mL
[7]; Table 6, 2nd
  MIC: 0.25 µg/mL
[8]; CAMHB
  MIC: 0.5 µg/mL and 1 µg/mL
[8]; TSB
  MIC: 0.25, 0.25 μg/ml
[8]; Table 6, 1st
  MIC: 2 µg/mL
[8]; Table 6, 2nd
  MIC: 1 µg/mL
[9]; CAMHB
  MIC: 0.5, 0.5 μg/ml
[9]; TSB
  MIC: 0.5, 0.5 μg/ml
[9]; Table 6, 1st
  MIC: 0.25 µg/mL
[9]; Table 6, 2nd
  MIC: 0.5 µg/mL
[10]; CAMHB
  MIC: 0.5, 0.5 μg/ml
[10]; TSB
  MIC: 0.5, 0.5 μg/ml
[10]; Table 6, 1st
  MIC: 0.5 µg/mL
[10]; Table 6, 2nd
  MIC: 0.25 µg/mL
[11]; CAMHB
  MIC: 0.5, 0.5 μg/ml
[11]; TSB
  MIC: 1, 1 μg/ml
[11]; Table 6, 1st
  MIC: 1 µg/mL
[11]; Table 6, 2nd
  MIC: 0.25 µg/mL
[12]
  MIC: 0.25 µg/mL
[13]; CAMHB
  MIC: 0.25, 0.25 μg/ml
[13]; TSB
  MIC: 0.25, 0.25 μg/ml
[13]; Table 6, 1st
  MIC: 0.125 µg/mL
[13]; Table 6, 2nd
  MIC: 0.25 µg/mL
[14]; CAMHB
  MIC: 0.5 µg/mL and 0.25 µg/mL
[14]; TSB
  MIC: 0.25, 0.25 μg/ml
[14]; Table 6, 1st
  MIC: 1 µg/mL
[14]; Table 6, 2nd
  MIC: 0.5 µg/mL
[15]; CAMHB
  MIC: 0.5, 0.5 μg/ml
[15]; TSB
  MIC: 0.5, 0.5 μg/ml
[15]; Table 6, 1st
  MIC: 1 µg/mL
[15]; Table 6, 2nd
  MIC: 0.5 µg/mL
[16]; CAMHB
  MIC: 0.25, 0.25 μg/ml
[16]; TSB
  MIC: 0.25, 0.25 μg/ml
[16]; Table 6, 1st
  MIC: 1 µg/mL
[16]; Table 6, 2nd
  MIC: 0.25 µg/mL
[17]; CAMHB
  MIC: 0.5, 0.5 μg/ml
[17]; TSB
  MIC: 0.5, 0.5 μg/ml
[17]; Table 6, 1st
  MIC: 0.25 µg/mL
[17]; Table 6, 2nd
  MIC: 0.5 µg/mL
[18]; CAMHB
  MIC: 0.25, 0.25 μg/ml
[18]; TSB
  MIC: 0.5, 0.5 μg/ml
[18]; Table 6, 1st
  MIC: 0.25 µg/mL
[18]; Table 6, 2nd
  MIC: 0.25 µg/mL
[19]; CAMHB
  MIC: 0.25, 0.25 μg/ml
[19]; TSB
  MIC: 0.5, 0.5 μg/ml
[19]; Table 6, 1st
  MIC: 0.25 µg/mL
[19]; Table 6, 2nd
  MIC: 0.25 µg/mL
[20]; CAMHB
  MIC: 0.125, 0.125 μg/ml
[20]; TSB
  MIC: 0.25, 0.25 μg/ml
[20]; Table 6, 1st
  MIC: 0.06 µg/mL
[20]; Table 6, 2nd
  MIC: 0.125 µg/mL
[21]; S. aureus ATCC43300 MRSA/VISA, Table 6, 1st
  MIC: 2 µg/mL
[21]; S. aureus ATCC43300 MRSA/VISA, Table 6, 2nd
  MIC: 0.25 µg/mL
[21]; S. aureus ATCC43300 MRSA, CAMHB
  MIC: 1, 1 μg/ml
[21]; S. aureus ATCC43300 MRSA, TSB
  MIC: 0.5, 0.5 μg/ml
[22]
  MIC: 0.06 µg/mL
[23]; CAMHB
  MIC: 0.25, 0.25 μg/ml
[23]; TSB
  MIC: 0.5, 0.5 μg/ml
[23]; Table 6, 1st
  MIC: 0.25 µg/mL
[23]; Table 6, 2nd
  MIC: 0.5 µg/mL
